Experimental findings from ChEMBL document CHEMBL1201862, “PubChem BioAssay data set” (2004) are described below.

Holding throughout (assay): DTP human tumour cell line panel, 48 h
Experiment [1] has as its system 786-0.
Experiment [2] relates to A549.
Experiment [3] relates to ACHN.
Experiment [4] deals with BT-549.
Experiment [5] has as its system HOP-62.
For experiment [6], the system named is HOP-92.
Experiment [7] has as its system K562.
The test system of experiment [8] is MCF7.
For experiment [9], the system named is MDA-MB-435.
For experiment [10], the system named is Malme-3M.
Experiment [11] concerns NCI-H522.
The subject of experiment [12] is OVCAR-4.
The test system of experiment [13] is PC-3.
For experiment [14], the system named is RPMI-8226.
The subject of experiment [15] is SF-295.
For experiment [16], the system named is SK-MEL-28.
The subject of experiment [17] is SK-MEL-2.
Experiment [18] has as its system SNB-75.
Experiment [19] has as its system TK-10.
The subject of experiment [20] is UACC-257.

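Interpolation was linear, between the two tested concentrations surrounding the appropriate level; five concentrations were tested over 48 hours in 96-well plates. GI50: concentration for 50% inhibition of growth.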 Calls of active or inactive are those of the source. No stated cut-off is given here; in the data, active = GI50 up to about 1.1 µM and inactive = higher.

For the compound `C=C1C(=O)OC2/C=C(\COC(C)=O)CCC(OC(C)=O)C3=CC(OC3=O)C12` (stereo not given), the GI50 in [1] was 6.56 µM (inactive); in [2], 20 µM (inactive); in experiment [3], 3.12 µM (inactive); in [4], 5.38 µM (inactive); in experiment [5], 19.8 µM (inactive); in [6], 3.49 µM (inactive). In addition, the GI50 was 2.3 µM (inactive) in experiment [7]; 3.69 µM (inactive) in experiment [8]; 10.6 µM (inactive) in [9]; 2.15 µM (inactive) in experiment [10]; 0.526 µM (active) in experiment [11]; 23.3 µM (inactive) in experiment [12]. For the same compound, the GI50 is 16.4 µM (inactive) in [13]; 3.53 µM (inactive) in experiment [14]; 18 µM (inactive) in experiment [15]; 3.99 µM (inactive) in experiment [16]; 6.46 µM (inactive) in experiment [17]; 15.9 µM (inactive) in experiment [18]. Further, the GI50 is 5.28 µM (inactive) in experiment [19] and 3.57 µM (inactive) in [20].

For `Clc1ccc2oc(CCc3ccccc3)nc2c1`, the GI50 is 53.8 µM (inactive) in [1]; 36.6 µM (inactive) in [2]; 47.2 µM (inactive) in experiment [3]; 49.5 µM (inactive) in [4]; > 100 µM (inactive) in [5]; 49.4 µM (inactive) in experiment [6]. Further, the GI50 in experiment [7] was 49.9 µM (inactive); in experiment [8], 38 µM (inactive); in experiment [9] it was 44.2 µM (inactive); in experiment [10], > 100 µM (inactive); in experiment [11], 35.6 µM (inactive); in experiment [12], 52 µM (inactive). In addition, the GI50 was 48.6 µM (inactive) in experiment [13]; 46.1 µM (inactive) in experiment [14]; 33.6 µM (inactive) in experiment [15]; 72.3 µM (inactive) in [16]; 30.6 µM (inactive) in experiment [17]; 17.8 µM (inactive) in experiment [18]. Also, the values for the GI50 in experiment [19] and in [20] were 69.7 µM (inactive) and 42.4 µM (inactive), respectively.

As to `Clc1ccc(-c2noc(CN3CCCCC3)n2)cc1`, the GI50 in [1], in experiment [2], in [3], in experiment [4], in experiment [5] and in experiment [6] was > 100 µM (inactive) each time. In addition, the GI50 in experiment [7] is 55.8 µM (inactive); in experiment [8], > 100 µM (inactive); in experiment [9], > 100 µM (inactive); in [10], > 100 µM (inactive); in experiment [11], 81.1 µM (inactive); in [12], > 100 µM (inactive). Moreover, the GI50 in experiment [13] was > 100 µM (inactive); in experiment [14], 43.9 µM (inactive); in [15], 66.8 µM (inactive); in experiment [16], > 100 µM (inactive); in [17], > 100 µM (inactive); in [18] it was > 100 µM (inactive). For the same compound, the GI50 is > 100 µM (inactive) in experiment [19] and 71 µM (inactive) in [20].

`O=c1c2ccccc2[nH]c(=S)n1-c1ccc(/N=N/c2cccc3c(O)cccc23)cc1`: the GI50 was > 100 µM (inactive) in experiment [1]; > 100 µM (inactive) in [2]; 88.3 µM (inactive) in [3]; > 100 µM (inactive) in [4]; > 100 µM (inactive) in experiment [5]; > 100 µM (inactive) in [6]. The GI50 was 36.2 µM (inactive) in experiment [7]; 13.5 µM (inactive) in [8]; 23 µM (inactive) in experiment [9]; 88.9 µM (inactive) in experiment [10]; > 100 µM (inactive) in [11]; > 100 µM (inactive) in experiment [12]. Moreover, the GI50 in experiment [13] was 67.6 µM (inactive); in experiment [14] it was 65.3 µM (inactive); in experiment [15], > 100 µM (inactive); in experiment [16], > 100 µM (inactive); in experiment [17] it was > 100 µM (inactive); in experiment [18], > 100 µM (inactive). Moreover, the GI50 was > 100 µM (inactive) in experiment [19] and 50.9 µM (inactive) in [20].

Turning to `CCOC(=O)C(NC(=O)CC)(Nc1ccc(S(=O)(=O)Nc2ccc(OC)nn2)cc1)C(F)(F)F` (stereo not given), the GI50 in experiment [1], in experiment [2], in experiment [3], in experiment [4], in experiment [5] and in experiment [6] was > 100 µM (inactive) throughout. The GI50 in experiment [7], in experiment [8], in experiment [9], in [10], in [11] and in [12] was > 100 µM (inactive) throughout. Further, the GI50 in experiment [13], in [14], in [15], in experiment [16], in experiment [17] and in experiment [18] was > 100 µM (inactive) throughout. The GI50 in [19] and in experiment [20] was > 100 µM (inactive) in each case.

With `C=CCNC1=C2C[C@@H](C)C[C@@H](OC)[C@H](OC(=O)CCN(C)C)[C@H](C)/C=C(\C)[C@@H](OC(N)=O)[C@H](OC)/C=C\C=C(/C)C(=O)NC(=CC1=O)C2=O`, the GI50 in experiment [1] is 1.43 µM (inactive); in experiment [2], 0.0559 µM (active); in experiment [3] it was 0.875 µM (active); in experiment [4] it was 12.9 µM (inactive); in [5], 0.044 µM (active); in [6] it was 8.41 µM (inactive). Besides, the GI50 was 0.156 µM (active) in [7]; 0.0295 µM (active) in experiment [8]; 0.053 µM (active) in experiment [9]; 0.0643 µM (active) in [10]; 0.125 µM (active) in [11]; 3.97 µM (inactive) in [12]. Moreover, the GI50 was 0.0386 µM (active) in experiment [13]; 1.15 µM (inactive) in experiment [14]; 0.134 µM (active) in [15]; 0.171 µM (active) in [16]; 0.059 µM (active) in [17]; 0.1 µM (active) in [18]. In addition, the GI50 in experiment [19] is 0.0755 µM (active); in experiment [20], 0.0914 µM (active).

`CC(=N/NC(=S)N1CCCCC1)/C(C)=N\NC(=S)N1CCCCC1`: the GI50 was 1.76 µM (inactive) in experiment [1]; 1.73 µM (inactive) in experiment [2]; 1.55 µM (inactive) in [3]; 1.92 µM (inactive) in experiment [4]; 1.79 µM (inactive) in experiment [5]; 1.48 µM (inactive) in experiment [6]. Besides, the GI50 is 2.25 µM (inactive) in [7]; 1.91 µM (inactive) in experiment [8]; 1.87 µM (inactive) in experiment [9]; 2.08 µM (inactive) in experiment [10]; 2.09 µM (inactive) in experiment [11]; 1.74 µM (inactive) in [12]. Moreover, the GI50 in [13] was 1.86 µM (inactive); in [14] it was 2.19 µM (inactive); in [15] it was 1.71 µM (inactive); in [16] it was 2.08 µM (inactive); in experiment [17], 1.97 µM (inactive); in [18], 1.45 µM (inactive). For the same compound, the values for the GI50 in [19] and in experiment [20] were 1.77 µM (inactive) and 1.87 µM (inactive), respectively.

As to `Cc1ccccc1NC(=O)CC(=O)NNC(Sc1ccccc1)c1cc(/N=N/c2ccc(Br)cc2)ccc1O` (stereo not given), the GI50 in experiment [1] was 0.551 µM (active); in experiment [2] it was 3.42 µM (inactive); in [3], 1.82 µM (inactive); in [4], 3.72 µM (inactive); in experiment [5] it was 2.17 µM (inactive); in [6], 5.97 µM (inactive). The GI50 is 2.73 µM (inactive) in experiment [7]; 0.798 µM (active) in experiment [8]; 3.65 µM (inactive) in experiment [9]; 3.26 µM (inactive) in experiment [10]; 6.01 µM (inactive) in [11]; 2.09 µM (inactive) in [12]. The GI50 is 0.877 µM (active) in [13]; 1.7 µM (inactive) in [14]; 2.75 µM (inactive) in experiment [15]; 6.52 µM (inactive) in experiment [16]; 5.93 µM (inactive) in experiment [17]; 3.79 µM (inactive) in experiment [18]. In addition, the GI50 in experiment [19] was 1.39 µM (inactive); in experiment [20], 3.65 µM (inactive).
